{"source": "the NIST ThermoML archive (doi:10.1021/acs.jced.9b00484)", "assay": "Boiling temperature at pressure P", "conditions": "Liquid, Ebulliometric method (Recirculating still)", "note": "± gives the expanded uncertainty stated by the source.", "data": [{"molecule": "ClCCCl", "note": "[1,2-dichloroethane]", "values": [{"measurement": "Boiling temperature at pressure P", "setting": "60.01 kPa", "result": "67.30 ± 0.33", "unit": "°C"}, {"measurement": "Boiling temperature at pressure P", "setting": "66.68 kPa", "result": "70.70 ± 0.31", "unit": "°C"}, {"measurement": "Boiling temperature at pressure P", "setting": "73.35 kPa", "result": "73.40 ± 0.29", "unit": "°C"}, {"measurement": "Boiling temperature at pressure P", "setting": "80.02 kPa", "result": "76.30 ± 0.29", "unit": "°C"}, {"measurement": "Boiling temperature at pressure P", "setting": "86.69 kPa", "result": "78.90 ± 0.27", "unit": "°C"}, {"measurement": "Boiling temperature at pressure P", "setting": "101.35 kPa", "result": "84.10 ± 0.27", "unit": "°C"}]}]}
